# Source: PubChem BioAssay (NCI)
#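 Method: 48-hour compound exposure of cells in 96-well plates, five concentrations, linear interpolation of endpoints. TGI denotes the concentration required for complete inhibition of growth.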
# Assays:
# Test in all cases: NCI anticancer screen, dose series, 48 h
# 786-0 renal = system: 786-0 renal
# A498 renal = system: A498 renal
# A549 NSCLC = system: A549 NSCLC
# ACHN renal = system: ACHN renal
# BT-549 breast = system: BT-549 breast
# CAKI-1 renal = system: CAKI-1 renal
# CCRF-CEM leukemia = system: CCRF-CEM leukemia
# COLO 205 colon = system: COLO 205 colon
# DU-145 prostate = system: DU-145 prostate
# EKVX NSCLC = system: EKVX NSCLC
# HCC-2998 colon = system: HCC-2998 colon
# HCT-116 colon = system: HCT-116 colon
# HCT-15 colon = system: HCT-15 colon
# HOP-62 NSCLC = system: HOP-62 NSCLC
# HOP-92 NSCLC = system: HOP-92 NSCLC
# HS 578T breast = system: HS 578T breast
# HT29 colon = system: HT29 colon
# IGROV1 ovarian = system: IGROV1 ovarian
# K-562 leukemia = system: K-562 leukemia
# KM12 colon = system: KM12 colon
# LOX IMVI melanoma = system: LOX IMVI melanoma
# M14 melanoma = system: M14 melanoma
# MALME-3M melanoma = system: MALME-3M melanoma
# MCF7 breast = system: MCF7 breast
# MDA-MB-231 breast = system: MDA-MB-231 breast
# MDA-MB-435 = system: MDA-MB-435
# MDA-N = system: MDA-N
# MOLT-4 leukemia = system: MOLT-4 leukemia
# NCI-H226 lung = system: NCI-H226 lung
# NCI-H23 lung = system: NCI-H23 lung
# NCI-H460 lung = system: NCI-H460 lung
# NCI-H522 lung = system: NCI-H522 lung
# NCI/ADR-RES ovarian = system: NCI/ADR-RES ovarian
# OVCAR-3 ovarian = system: OVCAR-3 ovarian
# OVCAR-4 ovarian = system: OVCAR-4 ovarian
# OVCAR-5 ovarian = system: OVCAR-5 ovarian
# OVCAR-8 ovarian = system: OVCAR-8 ovarian
# PC-3 prostate = system: PC-3 prostate
# RPMI-8226 leukemia = system: RPMI-8226 leukemia
# RXF 393 renal = system: RXF 393 renal
# SF-268 CNS = system: SF-268 CNS
# SF-295 CNS = system: SF-295 CNS
# SF-539 CNS = system: SF-539 CNS
# SK-MEL-2 melanoma = system: SK-MEL-2 melanoma
# SK-MEL-28 melanoma = system: SK-MEL-28 melanoma
# SK-MEL-5 melanoma = system: SK-MEL-5 melanoma
# SK-OV-3 ovarian = system: SK-OV-3 ovarian
# SN12C renal = system: SN12C renal
# SNB-19 CNS = system: SNB-19 CNS
# SNB-75 CNS = system: SNB-75 CNS
# SR leukemia = system: SR leukemia
# SW-620 colon = system: SW-620 colon
# T-47D breast = system: T-47D breast
# TK-10 renal = system: TK-10 renal
# U251 CNS = system: U251 CNS
# UACC-257 melanoma = system: UACC-257 melanoma
# UACC-62 melanoma = system: UACC-62 melanoma
# UO-31 renal = system: UO-31 renal
smiles,measurement,setting,value
CC(NC(NC(C)C12CC3CC(CC(C3)C1)C2)=C(C(Cl)=C(Cl)Cl)[N+](=O)[O-])C12CC3CC(CC(C3)C1)C2 (stereo not given),TGI,786-0 renal,> 100 µM
same,TGI,A498 renal,> 100 µM
same,TGI,A549 NSCLC,25.7 µM
same,TGI,ACHN renal,> 100 µM
same,TGI,BT-549 breast,> 91.6 µM
same,TGI,CAKI-1 renal,> 100 µM
same,TGI,CCRF-CEM leukemia,4.64 µM
same,TGI,COLO 205 colon,22.6 µM
same,TGI,DU-145 prostate,> 100 µM
same,TGI,EKVX NSCLC,> 89.4 µM
same,TGI,HCC-2998 colon,> 75 µM
same,TGI,HCT-116 colon,40 µM
same,TGI,HCT-15 colon,> 100 µM
same,TGI,HOP-62 NSCLC,> 100 µM
same,TGI,HOP-92 NSCLC,17.3 µM
same,TGI,HS 578T breast,53.9 µM
same,TGI,HT29 colon,18.1 µM
same,TGI,IGROV1 ovarian,30.1 µM
same,TGI,K-562 leukemia,> 40 µM
same,TGI,KM12 colon,> 100 µM
same,TGI,LOX IMVI melanoma,21.5 µM
same,TGI,M14 melanoma,48.7 µM
same,TGI,MALME-3M melanoma,> 95.6 µM
same,TGI,MCF7 breast,> 58.7 µM
same,TGI,MDA-MB-231 breast,16 µM
same,TGI,MDA-MB-435,> 100 µM
same,TGI,MDA-N,> 100 µM
same,TGI,MOLT-4 leukemia,> 100 µM
same,TGI,NCI-H226 lung,> 61.7 µM
same,TGI,NCI-H23 lung,34.3 µM
same,TGI,NCI-H460 lung,21.8 µM
same,TGI,NCI-H522 lung,24.3 µM
same,TGI,NCI/ADR-RES ovarian,> 100 µM
same,TGI,OVCAR-3 ovarian,64.8 µM
same,TGI,OVCAR-4 ovarian,> 100 µM
same,TGI,OVCAR-5 ovarian,> 100 µM
same,TGI,OVCAR-8 ovarian,7.41 µM
same,TGI,PC-3 prostate,> 65.2 µM
same,TGI,RPMI-8226 leukemia,> 69.5 µM
same,TGI,RXF 393 renal,62.9 µM
same,TGI,SF-268 CNS,> 59.5 µM
same,TGI,SF-295 CNS,> 100 µM
same,TGI,SF-539 CNS,69 µM
same,TGI,SK-MEL-2 melanoma,> 67.6 µM
same,TGI,SK-MEL-28 melanoma,> 75.5 µM
same,TGI,SK-MEL-5 melanoma,36.3 µM
same,TGI,SK-OV-3 ovarian,> 100 µM
same,TGI,SN12C renal,23.2 µM
same,TGI,SNB-19 CNS,> 100 µM
same,TGI,SNB-75 CNS,> 100 µM
same,TGI,SR leukemia,> 100 µM
same,TGI,SW-620 colon,62.1 µM
same,TGI,T-47D breast,> 100 µM
same,TGI,TK-10 renal,> 100 µM
same,TGI,U251 CNS,12.6 µM
same,TGI,UACC-257 melanoma,> 54.6 µM
same,TGI,UACC-62 melanoma,> 100 µM
same,TGI,UO-31 renal,> 100 µM
COc1ncnc2c1cnn2Cc1cn(CCCCO)nn1,TGI,786-0 renal,> 100 µM
same,TGI,A498 renal,> 100 µM
same,TGI,A549 NSCLC,> 100 µM
same,TGI,ACHN renal,> 100 µM
same,TGI,BT-549 breast,> 100 µM
same,TGI,CAKI-1 renal,> 100 µM
same,TGI,CCRF-CEM leukemia,> 100 µM
same,TGI,COLO 205 colon,> 100 µM
same,TGI,DU-145 prostate,> 100 µM
same,TGI,EKVX NSCLC,> 100 µM
same,TGI,HCC-2998 colon,> 100 µM
same,TGI,HCT-116 colon,> 100 µM
same,TGI,HCT-15 colon,> 100 µM
same,TGI,HOP-62 NSCLC,> 100 µM
same,TGI,HOP-92 NSCLC,> 100 µM
same,TGI,HS 578T breast,> 100 µM
same,TGI,HT29 colon,> 100 µM
same,TGI,IGROV1 ovarian,> 100 µM
same,TGI,K-562 leukemia,> 100 µM
same,TGI,KM12 colon,> 100 µM
same,TGI,LOX IMVI melanoma,> 100 µM
same,TGI,M14 melanoma,> 100 µM
same,TGI,MALME-3M melanoma,> 100 µM
same,TGI,MCF7 breast,> 100 µM
same,TGI,MDA-MB-231 breast,> 100 µM
same,TGI,MDA-MB-435,> 100 µM
same,TGI,MDA-N,> 100 µM
same,TGI,MOLT-4 leukemia,> 100 µM
same,TGI,NCI-H226 lung,> 100 µM
same,TGI,NCI-H23 lung,> 100 µM
same,TGI,NCI-H460 lung,> 100 µM
same,TGI,NCI-H522 lung,> 100 µM
same,TGI,NCI/ADR-RES ovarian,> 100 µM
same,TGI,OVCAR-3 ovarian,> 100 µM
same,TGI,OVCAR-4 ovarian,> 100 µM
same,TGI,OVCAR-5 ovarian,> 100 µM
same,TGI,OVCAR-8 ovarian,> 100 µM
same,TGI,PC-3 prostate,> 100 µM
same,TGI,RPMI-8226 leukemia,> 100 µM
same,TGI,RXF 393 renal,> 100 µM
same,TGI,SF-268 CNS,> 100 µM
same,TGI,SF-295 CNS,> 100 µM
same,TGI,SF-539 CNS,> 100 µM
same,TGI,SK-MEL-2 melanoma,> 100 µM
same,TGI,SK-MEL-28 melanoma,> 100 µM
same,TGI,SK-MEL-5 melanoma,> 100 µM
same,TGI,SK-OV-3 ovarian,> 100 µM
same,TGI,SN12C renal,> 100 µM
same,TGI,SNB-19 CNS,> 100 µM
same,TGI,SR leukemia,> 100 µM
same,TGI,SW-620 colon,> 100 µM
same,TGI,T-47D breast,> 100 µM
same,TGI,TK-10 renal,> 100 µM
same,TGI,U251 CNS,> 100 µM
same,TGI,UACC-257 melanoma,> 100 µM
same,TGI,UACC-62 melanoma,> 100 µM
same,TGI,UO-31 renal,> 100 µM
